According to paper PMC12013189, “Phospho-regulated tethering of focal adhesion kinase to vinculin links force transduction to focal adhesion signaling” (Cell Communication and Signaling : CCS, 2025):

Experiments:
[1] = target: T1, FAT domain of FAK (hFAK904-1052 WT) (Homo sapiens, UniProt Q05397); experiment: Fluorescence anisotropy binding of FITC LD peptides to FAT-WT; conditions: versus single LD motifs
T1 construct: Expression plasmids for FAT (hFAK904-1052 WT and mutants H14, H23 and H14-23); 6xHis (TEV cleavable) (N, cleaved yes); made in house; host or cells: E. coli BL21(DE3)
T1 sequence (Q05397 904-1052): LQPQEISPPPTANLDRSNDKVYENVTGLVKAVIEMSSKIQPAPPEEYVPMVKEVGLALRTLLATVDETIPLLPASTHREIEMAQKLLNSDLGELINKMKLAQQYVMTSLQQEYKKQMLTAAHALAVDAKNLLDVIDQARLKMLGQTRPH
Text: Expression plasmids for FAT (hFAK904-1052 WT and mutants H14, H23 and H14-23), Vin-FL (hVinculin1-1066) and Vin-T (hVinculin891-1066) were ordered from GenScript in the pET28(+) vector, adding a TEV cleavable N-terminal 6xHis tag to the expressed proteins. Mutant FAT-H14 contains the mutations I936A, H1025A, K1032A; FAT-H23 contains the mutations K955A, R962A, I998A and FAT-14-23 contains the combined mutations I936A, K955A, R962A, I998A, H1025A, K1032A. All plasmids were introduced into E.coli strain BL21(DE3) for expression. Cells were grown in LB media, induced with 1 mM IPTG at an OD (600 nm) of 0.6 and grown over night at 20 °C. Cells were pelleted at 6000 rpm and resuspended in 20 mM Tris pH8, 200 mM NaCl, 5% Glycerol, 10 mM imidazole, 2mM TCEP, 1mM PMSF supplemented with cOmplete protein inhibitor cocktail (Roche). Cells were lysed by sonication and insoluble components removed by centrifugation at 40 K for 1 h at 4 °C. Soluble lysates were cleared through 0.45 μm filters and loaded onto His-Trap affinity columns (Cytiva), washed with step gradients up to 30 mM imidazole and eluted with a gradient up to 500 mM imidazole. Peak-fractions were digested over night with TEV protease (molar ratio ~ 1: 20) at 4 °C. Proteins were diluted to 50 mM NaCl and loaded onto a Source 15Q column, washed with 20 mM Tris pH8, 50 mM NaCl, 5% Glycerol, 1mM TCEP and eluted with a gradient up to 1 M NaCl. Peak fractions were mixed with 1 ml of Ni-NTA beads to remove TEV and uncleaved protein, adding 10 mM imidazole to prevent non-specific binding. The flow-through was concentrated, loaded onto a Superdex200 16/60 column and eluted in 20 mM Tris pH8, 200 mM NaCl, 5% Glycerol, 2mM TCEP. Peak fractions were concentrated, aliquots flash frozen in LN2 and stored at -80 °C.
(§1) Binding curves were determined in a total of 20 µl in black 384 well plates, by titrating protein concentrations (typically up to 50 µM) at a fixed concentration of 25 nM FITC labelled LD peptides (Apeptide Co. Ltd) in 20 mM Tris pH7.5, 150 mM NaCl, 1mM TCEP. Anisotropy measurements were preformed at 22 °C on a Spark® Multimode microplate reader (Tecan) with polarizers, at an excitation wavelength of 485 nm and an emission wavelength of 535 nm (20 nm bandwidth). KD values were extracted by fitting a one-site binding model using the GraphPad Prism software, using the equation: Y = Bmax*X/(KD + X), where Y is the measured anisotropy, X the protein concentration and Bmax the maximal anisotropy value at binding saturation.

[2] = test system: FAT-H14-23 (I936A, K955A, R962A, I998A, H1025A, K1032A); experiment: Fluorescence anisotropy binding to FAT-H14-23 mutant; design: species or system human; conditions: both sites mutated
Text: Expression plasmids for FAT (hFAK904-1052 WT and mutants H14, H23 and H14-23), Vin-FL (hVinculin1-1066) and Vin-T (hVinculin891-1066) were ordered from GenScript in the pET28(+) vector, adding a TEV cleavable N-terminal 6xHis tag to the expressed proteins. Mutant FAT-H14 contains the mutations I936A, H1025A, K1032A; FAT-H23 contains the mutations K955A, R962A, I998A and FAT-14-23 contains the combined mutations I936A, K955A, R962A, I998A, H1025A, K1032A. All plasmids were introduced into E.coli strain BL21(DE3) for expression. Cells were grown in LB media, induced with 1 mM IPTG at an OD (600 nm) of 0.6 and grown over night at 20 °C. […]
as §1

FAT-WT = experiment: svAUC peak integration, FAT-WT+LD2/4; type: binding, human
Protocol: (§2) For svAUC experiments, FAT and Vin-T proteins at 30 µM were incubated with 10 µM LD2/4 peptide in 20 mM Tris pH 7.5, 200 mM NaCl, 5% Glycerol and 1 mM TCEP. svAUC was performed at 20 °C at 48,000 rpm (Vin-T + LD1 + LD2, Fig. S2) or 58,000 rpm (FAT + LD2/4 + Vin-T; Fig. 3) in a XL-I analytical ultracentrifuge (Beckman-Coulter Inc.) equipped with both UV-VIS absorbance and Raleigh interference detection systems, using an An-50Ti rotor, and Epon-charcoal standard double-sector centerpieces (optical pathlength 12 mm or 4 mm for measurements at 100 µM shown in Fig. S2). Sedimentation profiles were recorded at 280 nm. Differential sedimentation coefficient distributions were calculated by least-squares boundary modelling of sedimentation velocity data using the continuous distribution c(s) Lamm equation model as implemented by SEDFIT [46]. These s values were corrected to standard conditions (water, 20 °C, and infinite dilution) using the program SEDNTERP [32] to get the corresponding standard s values (s20,w).

FAT-H14 = experiment: svAUC peak integration, FAT-H14+LD2/4; type: binding, human; conditions: 30 µM FAT-H14 + 10 µM LD2/4
Protocol: as §2

FAT-H23 = experiment: svAUC peak integration, FAT-H23+LD2/4; type: binding, human; conditions: 30 µM FAT-H23 + 10 µM LD2/4
Protocol: as §2

Vin-T = experiment: svAUC peak integration, Vin-T+LD2/4; type: binding, human; conditions: 30 µM Vin-T + 10 µM LD2/4
Protocol: as §2

FAT-WT and Vin-T = experiment: svAUC peak integration, FAT-WT+LD2/4+Vin-T; type: binding, human
Protocol: as §2

FAT-H14 and Vin-T = experiment: svAUC peak integration, FAT-H14+LD2/4+Vin-T; type: binding, human; conditions: 30 µM FAT-H14 + 10 µM LD2/4 + 30 µM Vin-T
Protocol: as §2

FAT-H23 and Vin-T = experiment: svAUC peak integration, FAT-H23+LD2/4+Vin-T; type: binding, human; conditions: 30 µM FAT-H23 + 10 µM LD2/4 + 30 µM Vin-T
Protocol: as §2

[3] = test system: GST-Vin-T and His-FAT-H14; experiment: GST-pulldown of His-FAT with GST-Vin-T and LD2/4; type: binding, human; conditions: 30 µM GST-Vin-T, 10 µM LD2/4, 30 µM His-FAT, western blot anti-His
Protocol: 30 µM GST-Vin-T, 10 µM LD2/4 and 30 µM His-FAT proteins were incubated with glutathione sepharose beads for 1 h, centrifuged for 1 min at […] and washed 3x with 20 mM Tris pH 7.5, 150 mM NaCl, 0.1% Nonidet P40. Proteins co-sedimented with beads were resuspended in SDS Laemmli buffer, heated to 96 °C for 5 min and subjected to SDS-PAGE and western blotting. His-FAT proteins (WT or mutants) were detected using a primary mouse anti-His antibody (Proteintech) and a secondary HRP conjugated goat anti-mouse antibody (Merck).

[4] = 30 µM FAT-WT + 10 µM LD2/4, 20 °C, 280 nm
[5] = 30 µM FAT-WT + 10 µM LD2/4 + 30 µM Vin-T

## SNLSELDRLLLELNAVQHNGSGSGGSGGSGGSGGSGGSGGSGGSGGSATRELDELMASLSD [LD2/4]
[1]
  increase of affinity for FAT by presence of both LD motifs: approximately 15 fold
[2]
  binding to FAT-H14-23, in words: no significant binding
FAT-WT; 30 µM FAT-WT + 10 µM LD2/4
  c(total): 0.58
FAT-WT; [4]
  c(Peak 1) [~ 1 s(S)]: 0.06
  c(Peak 2) [1-2 s(S)]: 0.37
FAT-WT; 30 µM FAT-WT + 10 µM LD2/4, ~2.4 S peak, absence of Vin-T
  c(Peak 3) [ >2 s(S)]: 0.15
FAT-H14
  c(Peak 1) [~ 1 s(S)]: 0.11
  c(Peak 2) [1-2 s(S)]: 0.45
  c(Peak 3) [ >2 s(S)]: 0.05
  c(total): 0.61
FAT-H23
  c(Peak 1) [~ 1 s(S)]: 0.11
  c(Peak 2) [1-2 s(S)]: 0.45
  c(Peak 3) [ >2 s(S)]: 0.03
  c(total): 0.59
Vin-T
  c(Peak 1) [~ 1 s(S)]: 0.18
  c(Peak 2) [1-2 s(S)]: 0.59
  c(total): 0.77
FAT-WT and Vin-T; [5]
  c(Peak 2) [1-2 s(S)]: 0.68
  c(total): 1.08
FAT-WT and Vin-T; 30 µM FAT-WT + 10 µM LD2/4 + 30 µM Vin-T, ~2.4 S peak
  c(Peak 3) [ >2 s(S)]: 0.40
FAT-WT and Vin-T; difference of 2.4 S peak in presence and absence of Vin-T, FAT-WT
  amount (c) of tripartite FAT:LD2/4:Vin-T complex: ≈ 0.25
FAT-H14 and Vin-T
  c(Peak 2) [1-2 s(S)]: 0.57
  c(total): 1.09
FAT-H14 and Vin-T; 2.4 S peak
  c(Peak 3) [ >2 s(S)]: 0.52
FAT-H23 and Vin-T
  c(Peak 1) [~ 1 s(S)]: 0.08
  c(Peak 2) [1-2 s(S)]: 0.80
  c(total): 1.18
FAT-H23 and Vin-T; ~2.3 S peak
  c(Peak 3) [ >2 s(S)]: 0.30 and ≈ 0.30
[3]
  His-FAT-H14 pulled down with GST-Vin-T: only pulled down in the presence of the LD2/4 peptide
